Test results as given in ChEMBL document CHEMBL3525989 (Drug Metab Dispos, 2011).

What was measured:
Cytochrome P450 3A4 [1] = target: T1, Cytochrome P450 3A4 (Homo sapiens, UniProt P08684); assay: Inhibition of recombinant CYP3A4 (unknown origin) expressed in baculosomes assessed as decrease in CYP3A4-CO binding at 10 uM preincubated for 5 mins measured after […] by LC-tandem mass spectrometry analysis in presence of 1 mM NADPH; assay type: ADME; details: recombinant enzyme
Cytochrome P450 3A4 [2] = target: T1, Cytochrome P450 3A4; assay: Inhibition of recombinant CYP3A4 (unknown origin) expressed in baculosomes assessed as decrease in CYP3A4-CO binding at 10 uM preincubated for 5 mins measured after overnight washout with 100 mM potassium phosphate buffer by LC-tandem mass spectrometry analysis in presence of 1 mM NADPH; assay type: ADME; details: recombinant enzyme
Cytochrome P450 3A4 [3] = target: T1, Cytochrome P450 3A4; assay: Binding affinity to CYP3A4 (unknown origin); assay type: ADME; details: read-out: Ks
CYP3A4 [4] = target: T2, CYP3A4 (Homo sapiens, UniProt P08684); assay: Inhibition of recombinant CYP3A4 (unknown origin) expressed in baculosomes assessed as enzyme remaining activity at 10 uM measured after 1.5 min in presence of 1 mM NADPH; assay type: ADME; details: read-out: Activity
T2 sequence (P08684 whole entry): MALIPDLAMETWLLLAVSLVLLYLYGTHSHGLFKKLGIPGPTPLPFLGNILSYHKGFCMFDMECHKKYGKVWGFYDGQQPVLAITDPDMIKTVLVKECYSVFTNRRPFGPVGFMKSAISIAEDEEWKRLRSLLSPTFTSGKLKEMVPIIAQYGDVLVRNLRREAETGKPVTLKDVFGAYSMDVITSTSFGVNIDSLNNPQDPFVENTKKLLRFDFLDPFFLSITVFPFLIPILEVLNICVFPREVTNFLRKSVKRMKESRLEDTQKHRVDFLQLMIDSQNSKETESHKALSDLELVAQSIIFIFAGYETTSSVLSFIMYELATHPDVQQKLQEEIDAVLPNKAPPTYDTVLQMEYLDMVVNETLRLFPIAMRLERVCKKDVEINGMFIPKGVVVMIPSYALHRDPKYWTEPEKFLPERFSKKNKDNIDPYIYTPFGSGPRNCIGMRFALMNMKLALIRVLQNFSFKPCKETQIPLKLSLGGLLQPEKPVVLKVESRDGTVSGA

CYP3A4 [5] = target: T2, CYP3A4; assay: (§1) Inhibition of recombinant CYP3A4 (unknown origin) expressed in baculosomes in presence of 1 mM NADPH; assay type: ADME; details: human, recombinant CYP3A4 expressed in baculosomes
Cytochrome P450 3A4 [6] = target: T1, Cytochrome P450 3A4; assay: as §1; assay type: ADME
Cytochrome P450 3A4 [7] = target: T1, Cytochrome P450 3A4; assay: Inhibition of recombinant CYP3A4 (unknown origin) expressed in baculosomes in presence of 1 mM NADPH and 1 mM nucleophilic trapping agent glutathione; assay type: ADME; details: recombinant enzyme
Cytochrome P450 3A4 [8] = target: T1, Cytochrome P450 3A4; assay: Inhibition of recombinant CYP3A4 (unknown origin) expressed in baculosomes in presence of 1 mM NADPH and 1 mM nucleophilic trapping agent semicarbazide; assay type: ADME; details: recombinant enzyme
Cytochrome P450 3A4 [9] = target: T1, Cytochrome P450 3A4; assay: Inhibition of recombinant CYP3A4 (unknown origin) expressed in baculosomes in presence of 1 mM NADPH and 1 mM nucleophilic trapping agent potassium cyanide; assay type: ADME; details: recombinant enzyme
Cytochrome P450 3A4 [10] = target: T1, Cytochrome P450 3A4; assay: Inhibition of recombinant CYP3A4 (unknown origin) expressed in baculosomes in presence of 1 mM NADPH and 1 mM nucleophilic trapping agent methyl hydroxylamine; assay type: ADME; details: recombinant enzyme
Cytochrome P450 3A4 [11] = target: T1, Cytochrome P450 3A4; assay: Inhibition of recombinant CYP3A4 (unknown origin) expressed in baculosomes in presence of 1 mM NADPH and 1 mM nucleophilic trapping agent N-acetyl cysteine; assay type: ADME; details: recombinant enzyme
Cytochrome P450 3A4 [12] = target: T1, Cytochrome P450 3A4; assay: Inhibition of recombinant CYP3A4 (unknown origin) expressed in baculosomes in presence of 1 mM NADPH and 1 mM nucleophilic trapping agent N-acetyl lysine; assay type: ADME; details: recombinant enzyme
Cytochrome P450 3A4 [13] = target: T1, Cytochrome P450 3A4; assay: Inhibition of recombinant CYP3A4 (unknown origin) expressed in baculosomes in presence of 1 mM NADPH and 1 mM nucleophilic trapping agent superoxide dismutase; assay type: ADME; details: recombinant enzyme
Cytochrome P450 3A4 [14] = target: T1, Cytochrome P450 3A4; assay: Inhibition of recombinant CYP3A4 (unknown origin) expressed in baculosomes in presence of 1 mM NADPH and 1 mM nucleophilic trapping agent catalase; assay type: ADME; details: recombinant enzyme
Cytochrome P450 3A4 [15] = target: T1, Cytochrome P450 3A4; assay: Inhibition of recombinant CYP3A4 (unknown origin) expressed in baculosomes in presence of 1 mM NADPH and 1 mM nucleophilic trapping agent dimethyl pyrroline N-oxide; assay type: ADME; details: recombinant enzyme
CYP3A4 [16] = target: T2, CYP3A4; assay: Residual activity of recombinant CYP3A4 (unknown origin) expressed in baculosomes at 10 uM measured after 1.5 min in presence of 1 mM NADPH

T1 sequence (P08684 whole entry): as above

Row | SMILES | inhibition (INH) (Cytochrome P450 3A4 [1]) | inhibition (INH) (Cytochrome P450 3A4 [2]) | Kd (Cytochrome P450 3A4 [3]) [µM] | activity at 0.025 h, 10 µM (CYP3A4 [4]) [%] | kinact (CYP3A4 [5]) [s⁻¹] | Ki (Cytochrome P450 3A4 [6]) [µM] | inhibition (INH) (Cytochrome P450 3A4 [7]) | inhibition (INH) (Cytochrome P450 3A4 [8]) | inhibition (INH) (Cytochrome P450 3A4 [9]) | inhibition (INH) (Cytochrome P450 3A4 [10]) | inhibition (INH) (Cytochrome P450 3A4 [11]) | inhibition (INH) (Cytochrome P450 3A4 [12]) | inhibition (INH) (Cytochrome P450 3A4 [13]) | inhibition (INH) (Cytochrome P450 3A4 [14]) | inhibition (INH) (Cytochrome P450 3A4 [15]) | residual activity at 0.025 h, 10 µM (CYP3A4 [16]) [%]
1 | CC(C)[C@H]1c2ccc(F)cc2CC[C@]1(O)CCN(C)CCCc1nc2ccccc2[nH]1 | Active | Active | 1.39 | 60 | 0.00133 | 0.82 | – | – | – | – | – | – | – | – | – | –
2 | COCC(=O)O[C@]1(CCN(C)CCCc2nc3ccccc3[nH]2)CCc2cc(F)ccc2[C@@H]1C(C)C [MIBEFRADIL] | Active | Active | – | – | – | – | Active | Active | Active | Active | Active | Active | Active | Active | Active | < 20
